From patent publication US20260325533A1, “CDK INHIBITOR COMPOUNDS” (ALEKSIA THERAPEUTICS, INC., priority 2023, published 2026)
Read-outs that look alike come from different tables or passages of the source. One block for each molecule: values may come before it.

Assays:
Format in all cases: biochemical
CDK2/CCNE1 = CDK2/CCNE1 (Homo sapiens, UniProt P24941); assay: CDK2 homogeneous time-resolved fluorescence (HTRF) kinase assay; settings: CDK2/CCNE
Outline: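 An HTRF format measures CDK2/CCNE1 (3 nM) phosphorylating a 4E-BP1 Thr37/46 peptide at high (1 mM) ATP. Reactions run one hour at 23 °C, then EDTA-quenched and probed with Eu-labelled phospho-specific antibody.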

CDK1/CCNB1 = CDK1/CCNB1 (Homo sapiens, UniProt P06493); assay: CDK1 homogeneous time-resolved fluorescence (HTRF) kinase assay; settings: CDK1/CCNB
Outline: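 CDK1/CCNB1 0.5 nM + cpd, 20 min 23 °C; add 1 mM ATP, 50 nM ULight-4E-BP1 peptide, 60 min 23 °C; stop 10 mM EDTA; 2 nM Eu-Ab, 60 min; HTRF 665 nm. 11-pt half-log, top 10 μM typical; IC50.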

CDK4/CCND3 = CDK4/CCND3 (Homo sapiens, UniProt P11802); assay: CDK4 homogeneous time-resolved fluorescence (HTRF) kinase assay; settings: CDK4/CCND
Description: (§1) A CDK homogeneous time-resolved fluorescence (HTRF) assay was used to assess the potency of the compounds described herein.
(§2) To an untreated 384-well microtiter plate (ProxiPlate) was added 100 nL 100×test compound in DMSO and 5 μL 2×CDK enzyme in assay buffer (50 mM HEPES, 1 mM EGTA, 10 mM MgCl2, 0.01% Tween 20, 2 mM DTT). The plate was centrifuged at 800 RPM for 1 min then incubated for 20 min at 23 °C. 2.5 μL per well of 4×ATP and 2.5 μL 4×ULight™-eIF4E-binding protein 1 (Thr37/46) Peptide substrate were added to all wells. After addition, the plates were centrifuged at 800 RPM for 1 min. The plates were incubated at 23 °C for 60 min. 5 μL per well 4×EDTA solution were added to each well to stop the reaction. 5 μL 4×LANCE Ultra Europium-anti-phospho-eIF4E-binding protein 1 (Thr37/46) antibody were added to each well and the plate was centrifuged for 1 min at 800 RPM. The plate was incubated for 60 min at 23 °C. Fluorescence was read at 340 nm excitation and 665 nm emission on an EnVision 2105 fluorescence reader. The final concentrations of reagents in the activity assay were 1.5 nM CDK4/CCND3, 1 mM ATP, 50 nM ULight™-eIF4E-binding protein 1 (Thr37/46) Peptide substrate, 1% DMSO, 10 mM EDTA, and 2 nM LANCE Ultra Europium-anti-phospho-eIF4E-binding protein 1 (Thr37/46).
(§3) Dose-response titrations were conducted by using an 11-point, half-logarithmic serial dilution scheme typically starting at 10 μM. Signals were reported as fluorescence units at 665 nm or the ratio of fluorescence units at 665 nm/fluorescence units at 615 nm. Signals are referred to below as “Lance signals”.
(§4) Using this assay, the IC50 values of example compounds were determined. Table 3 illustrates the IC50 for various Example compounds of Formula IA. Table 4 illustrates the IC50 for various other Example compounds of Formula I. ND=not determined.

CDK6/CCND1 = CDK6/CCND1 (Homo sapiens, UniProt Q00534); assay: CDK6 homogeneous time-resolved fluorescence (HTRF) kinase assay; settings: CDK6/CCND
Description: as §1
as §2, with “1” for “1.5”, “CDK6/CCND1,” for “CDK4/CCND3,”
as §3, §4

[1] = <25 nM, read-out: CDK2/CCNE IC50 <25 nM
[2] = >250 nM marked x, read-out: CDK1/CCNB IC50 >250 nM
[3] = 25-250 nM marked x, read-out: CDK4/CCND IC50 25-250 nM
[4] = 25-250 nM marked x, read-out: CDK6/CCND IC50 25-250 nM
[5] = 25-250 nM marked x, read-out: CDK1/CCNB IC50 25-250 nM
[6] = <25 nM, read-out: CDK4/CCND IC50 <25 nM
[7] = <25 nM, read-out: CDK6/CCND IC50 <25 nM
[8] = x = IC50 25-250 nM, read-out: CDK1/CCNB IC50 (25-250 nM)
[9] = x = IC50 25-250 nM, read-out: CDK4/CCND IC50 (25-250 nM)
[10] = x = IC50 <25 nM, read-out: CDK2/CCNE IC50 (<25 nM)
[11] = x = IC50 >250 nM, read-out: CDK4/CCND IC50 (>250 nM column)
[12] = x = IC50 >250 nM, read-out: CDK6/CCND IC50 (>250 nM column)

Chain of CDK1/CCNB1 (P06493 whole entry): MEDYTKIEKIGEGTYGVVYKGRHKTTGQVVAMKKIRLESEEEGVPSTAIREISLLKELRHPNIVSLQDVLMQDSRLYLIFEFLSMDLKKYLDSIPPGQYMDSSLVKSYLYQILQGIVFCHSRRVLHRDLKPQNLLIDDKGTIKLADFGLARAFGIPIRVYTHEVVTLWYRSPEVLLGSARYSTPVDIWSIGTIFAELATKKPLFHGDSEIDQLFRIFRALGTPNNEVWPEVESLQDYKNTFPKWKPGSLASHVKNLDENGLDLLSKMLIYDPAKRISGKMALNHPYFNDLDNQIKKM
Chain of CDK1/CCNB1 (P14635 whole entry partner): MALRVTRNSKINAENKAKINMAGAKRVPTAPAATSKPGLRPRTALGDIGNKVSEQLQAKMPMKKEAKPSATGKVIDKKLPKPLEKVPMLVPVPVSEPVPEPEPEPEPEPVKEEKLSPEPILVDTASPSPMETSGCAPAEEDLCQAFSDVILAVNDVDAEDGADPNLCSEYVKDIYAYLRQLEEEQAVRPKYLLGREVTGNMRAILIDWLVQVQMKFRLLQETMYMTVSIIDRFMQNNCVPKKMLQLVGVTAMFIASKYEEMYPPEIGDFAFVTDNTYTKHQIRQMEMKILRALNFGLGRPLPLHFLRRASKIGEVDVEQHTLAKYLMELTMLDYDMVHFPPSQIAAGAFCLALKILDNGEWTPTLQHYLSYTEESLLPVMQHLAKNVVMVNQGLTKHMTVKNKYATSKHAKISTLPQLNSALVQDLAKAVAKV
Chain of CDK4/CCND3 (P11802 whole entry): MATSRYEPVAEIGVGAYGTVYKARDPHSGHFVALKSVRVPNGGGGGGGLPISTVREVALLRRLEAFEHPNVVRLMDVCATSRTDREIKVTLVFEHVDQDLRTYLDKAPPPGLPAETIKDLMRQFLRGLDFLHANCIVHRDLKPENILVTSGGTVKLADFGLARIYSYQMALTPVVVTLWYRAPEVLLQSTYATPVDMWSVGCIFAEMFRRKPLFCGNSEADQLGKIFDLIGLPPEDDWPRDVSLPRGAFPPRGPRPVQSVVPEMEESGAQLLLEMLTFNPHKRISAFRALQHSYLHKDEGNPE
Chain of CDK4/CCND3 (P30281 whole entry partner): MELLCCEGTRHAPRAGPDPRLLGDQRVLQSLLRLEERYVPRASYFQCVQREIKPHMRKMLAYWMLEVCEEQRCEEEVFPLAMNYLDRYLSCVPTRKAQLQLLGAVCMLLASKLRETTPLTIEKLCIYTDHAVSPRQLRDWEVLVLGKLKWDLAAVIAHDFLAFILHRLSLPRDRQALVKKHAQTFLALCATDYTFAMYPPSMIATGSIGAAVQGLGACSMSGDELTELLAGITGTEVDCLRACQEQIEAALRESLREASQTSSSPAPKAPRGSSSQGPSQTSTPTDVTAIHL
Chain of CDK6/CCND1 (Q00534 whole entry): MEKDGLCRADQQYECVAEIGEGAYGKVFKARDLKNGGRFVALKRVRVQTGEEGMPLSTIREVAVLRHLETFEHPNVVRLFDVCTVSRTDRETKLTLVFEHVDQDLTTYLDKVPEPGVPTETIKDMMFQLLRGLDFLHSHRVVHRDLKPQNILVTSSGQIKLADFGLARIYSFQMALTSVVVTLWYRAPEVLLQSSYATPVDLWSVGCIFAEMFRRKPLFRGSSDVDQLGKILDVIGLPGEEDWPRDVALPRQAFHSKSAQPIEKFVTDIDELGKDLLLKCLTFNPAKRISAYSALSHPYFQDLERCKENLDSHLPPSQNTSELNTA
Chain of CDK6/CCND1 (P24385 whole entry partner): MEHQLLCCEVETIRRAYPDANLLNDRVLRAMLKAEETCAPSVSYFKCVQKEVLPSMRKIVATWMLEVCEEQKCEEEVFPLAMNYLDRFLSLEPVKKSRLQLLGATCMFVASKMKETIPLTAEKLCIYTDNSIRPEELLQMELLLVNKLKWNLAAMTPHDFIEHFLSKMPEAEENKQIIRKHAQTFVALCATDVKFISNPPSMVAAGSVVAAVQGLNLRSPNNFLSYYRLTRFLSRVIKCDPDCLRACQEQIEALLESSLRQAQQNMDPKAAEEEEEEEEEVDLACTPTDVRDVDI

Compound: CS(=O)(=O)N1CCC(Nc2cc3c(N4CCC(O)C4)nccc3cn2)CC1 (racemic) [Ex 26, 1-(7-((1-(methylsulfonyl)piperidin-4-yl)amino)-2,6-naphthyridin-1-yl)pyrrolidin-3-ol]
IC50 (CDK2/CCNE1; [1]): < 25 nM
IC50 (CDK1/CCNB1; [2]): > 250 nM
IC50 (CDK4/CCND3; [3]): 25 to 250 nM
IC50 (CDK6/CCND1; [4]): 25 to 250 nM

Compound: CC1CCCCN1c1nccc2cnc(NC3CCN(S(C)(=O)=O)CC3)cc12 (racemic) [Ex 34, 5-(2-methylpiperidin-1-yl)-N-(1-(methylsulfonyl)piperidin-4-yl)-2,6-naphthyridin-3-amine]
IC50 (CDK2/CCNE1; [1]): < 25 nM
IC50 (CDK1/CCNB1; [5]): 25 to 250 nM
IC50 (CDK4/CCND3; [6]): < 25 nM
IC50 (CDK6/CCND1; [7]): < 25 nM

Compound: CS(=O)(=O)N1CCC(Nc2cc3c(N4CCCC(C#N)C4)nccc3cn2)CC1 (racemic) [Ex 39, 1-(7-((1-(methylsulfonyl)piperidin-4-yl)amino)-2,6-naphthyridin-1-yl)piperidine-3-carbonitrile]
IC50 (CDK2/CCNE1; [1]): < 25 nM
IC50 (CDK1/CCNB1; [5]): 25 to 250 nM
IC50 (CDK4/CCND3; [3]): 25 to 250 nM
IC50 (CDK6/CCND1; [7]): < 25 nM

Compound: CS(=O)(=O)N1CCC(Nc2cc3c(N4CCCC(CO)C4)nccc3cn2)CC1 (racemic) [Ex 40, (1-(7-((1-(methylsulfonyl)piperidin-4-yl)amino)-2,6-naphthyridin-1-yl)piperidin-3-yl)methanol]
IC50 (CDK2/CCNE1; [1]): < 25 nM
IC50 (CDK1/CCNB1; [5]): 25 to 250 nM
IC50 (CDK4/CCND3; [3]): 25 to 250 nM
IC50 (CDK6/CCND1; [4]): 25 to 250 nM

Compound: CNC(=O)C1CCCN(c2nccc3cnc(NC4CCN(S(C)(=O)=O)CC4)cc23)C1 (single isomer, unassigned) [Ex 33, N-methyl-1-(7-((1-(methylsulfonyl)piperidin-4-yl)amino)-2,6-naphthyridin-1-yl)piperidine-3-carboxamide]
IC50 (CDK1/CCNB1; [2]): > 250 nM
IC50 (CDK4/CCND3; [6]): < 25 nM
IC50 (CDK6/CCND1; [4]): 25 to 250 nM

Compound: CS(=O)(=O)N1CCC(Nc2cc3c(N4CCC(C#N)C4)nccc3cn2)CC1 (single isomer, unassigned) [Ex 261, 1-(7-((1-(methylsulfonyl)piperidin-4-yl)amino)-2,6-naphthyridin-1-yl)pyrrolidine-3-carbonitrile]
IC50 (CDK1/CCNB1; [2]): > 250 nM
IC50 (CDK4/CCND3; [3]): 25 to 250 nM
IC50 (CDK6/CCND1; [4]): 25 to 250 nM

Compound: CS(=O)(=O)N1CCC(Nc2cc3c(-c4ccc(C#N)nc4)nccc3cn2)CC1 [Ex 61, 5-(7-((1-(methylsulfonyl)piperidin-4-yl)amino)-2,6-naphthyridin-1-yl)picolinonitrile]
IC50 (CDK1/CCNB1; [2]): > 250 nM
IC50 (CDK4/CCND3; [3]): 25 to 250 nM
IC50 (CDK6/CCND1; [4]): 25 to 250 nM

Compound: CS(=O)(=O)N1CCC(Nc2cc3c(-c4ccc(N5CCOCC5)cc4)nccc3cn2)CC1 [Ex 65, N-(1-(methylsulfonyl)piperidin-4-yl)-5-(4-morpholinophenyl)-2,6-naphthyridin-3-amine]
IC50 (CDK2/CCNE1; 25-250 nM marked x, read-out: CDK2/CCNE IC50 25-250 nM): 25 to 250 nM
IC50 (CDK4/CCND3; [3]): 25 to 250 nM
IC50 (CDK6/CCND1; [4]): 25 to 250 nM

More lines, now with the values ahead:

IC50 (CDK1/CCNB1; [8]): 25 to 250 nM
IC50 (CDK4/CCND3; [9]): 25 to 250 nM
IC50 (CDK6/CCND1; x = IC50 25-250 nM, read-out: CDK6/CCND IC50 (25-250 nM)): 25 to 250 nM
Compound: CCS(=N)(=O)c1ccc(Nc2cc3c(C#Cc4ccc5c(c4)NC(=O)C54CC4)nccc3cn2)cc1 (racemic) [Ex 376, 6'-((7-((4-(ethylsulfonimidoyl)phenyl)amino)-2,6-naphthyridin-1-yl)ethynyl)spiro[cyclopropane-1,3'-indolin]-2'-one]

IC50 (CDK1/CCNB1; [5]): 25 to 250 nM
IC50 (CDK4/CCND3; [3]): 25 to 250 nM
IC50 (CDK6/CCND1; [4]): 25 to 250 nM
Compound: CCS(=N)(=O)c1ccc(Nc2cc3c(C#Cc4ccc5c(c4)NC(=O)C54CC4)nccc3cn2)c(OC)c1 (single isomer, unassigned) [Ex 290, 6'-((7-((4-(ethylsulfonimidoyl)-2-methoxyphenyl)amino)-2,6-naphthyridin-1-yl)ethynyl)spiro[cyclopropane-1,3'-indolin]-2'-one]

IC50 (CDK4/CCND3; [6]): < 25 nM
IC50 (CDK6/CCND1; [4]): 25 to 250 nM
Compound: CC(C)S(=N)(=O)c1ccc(Nc2cc3c(C#Cc4ccc5c(c4)NC(=O)C5(C)CO)nccc3cn2)cc1 (single isomer, unassigned) [Ex 329, 3-(hydroxymethyl)-3-methyl-6-((7-((4-(propan-2-ylsulfonimidoyl)phenyl)amino)-2,6-naphthyridin-1-yl)ethynyl)indolin-2-one]

IC50 (CDK2/CCNE1; [10]): < 25 nM
IC50 (CDK1/CCNB1; [8]): 25 to 250 nM
IC50 (CDK4/CCND3; [9]): 25 to 250 nM
Compound: Cc1cc2c(cc1C#Cc1nccc3cnc(Nc4ccc(S(=N)(=O)C(C)C)cc4)cc13)NC(=O)C2(C)C (single isomer, unassigned) [Ex 343, 3,3,5-trimethyl-6-((7-((4-(propan-2-ylsulfonimidoyl)phenyl)amino)-2,6-naphthyridin-1-yl)ethynyl)indolin-2-one]

IC50 (CDK4/CCND3; [11]): > 250 nM
IC50 (CDK6/CCND1; [12]): > 250 nM
Compound: CC(C)S(=N)(=O)c1ccc(Nc2cc3c(C#Cc4ccc5c(c4)NC(=O)C54CCC4)nccc3cn2)cc1 (single isomer, unassigned) [Ex 384, 6'-((7-((4-(propan-2-ylsulfonimidoyl)phenyl)amino)-2,6-naphthyridin-1-yl)ethynyl)spiro[cyclobutane-1,3'-indolin]-2'-one]

IC50 (CDK1/CCNB1; x = IC50 >250 nM, read-out: CDK1/CCNB IC50 (>250 nM column)): > 250 nM
IC50 (CDK4/CCND3; [11]): > 250 nM
IC50 (CDK6/CCND1; [12]): > 250 nM
Compound: CCC1(CC)C(=O)Nc2cc(C#Cc3nccc4cnc(Nc5ccc(S(=O)(=O)C6CC6)cc5)cc34)ccc21 [Ex 408, 6-((7-((4-(cyclopropylsulfonyl)phenyl)amino)-2,6-naphthyridin-1-yl)ethynyl)-3,3-diethylindolin-2-one]

IC50 (CDK2/CCNE1; [10]): < 25 nM
IC50 (CDK4/CCND3; [11]): > 250 nM
IC50 (CDK6/CCND1; [12]): > 250 nM
Compound: CC1(C)C(=O)Nc2cc(C#Cc3nccc4cnc(Nc5ccc(S(C)(=O)=O)cc5F)cc34)ccc21 [Ex 438, 6-((7-((2-fluoro-4-(methylsulfonyl)phenyl)amino)-2,6-naphthyridin-1-yl)ethynyl)-3,3-dimethylindolin-2-one]

IC50 (CDK2/CCNE1; x = IC50 25-250 nM, read-out: CDK2/CCNE IC50 (25-250 nM)): 25 to 250 nM
IC50 (CDK4/CCND3; [11]): > 250 nM
IC50 (CDK6/CCND1; [12]): > 250 nM
Compound: CC(=O)NCCn1cc2c(C)c(-c3nccc4cnc(Nc5ccc(S(C)(=O)=O)cc5)cc34)ccc2n1 [Ex 632, N-(2-(4-methyl-5-(7-((4-(methylsulfonyl)phenyl)amino)-2,6-naphthyridin-1-yl)-2H-indazol-2-yl)ethyl)acetamide]
